The record followed here is ChEMBL document CHEMBL5360530, “Structure activity relationship (SAR) and anticancer activity of pyrrolidine derivatives: Recent developments and future prospects (A review)” (Eur J Med Chem, 2023).

For assay [1], the system named is A549. Put plainly: Anticancer activity against human A549 cells assessed as cell growth inhibition measured after 48 hrs by MTT assay. The conditions noted are these: A549, 48 h. The assay is classed as functional, cell-based. (Formazan colour is commonly taken as a measure of viable cells.)
Assay [2] concerns MCF7. Put plainly: Anticancer activity against human MCF7 cells assessed as cell growth inhibition measured after 48 hrs by MTT assay. Format: functional, cell-based. Conditions: MCF7, 48 h.
Another assay deals with FaDu. Kind of assay: Anticancer activity against human FaDu cells assessed as cell growth inhibition measured after 48 hrs. The assay is classed as functional, cell-based. Conditions: Homo sapiens, FaDu, 48 h.
Another assay deals with MDA-MB-435. Kind of assay: Anticancer activity against human MDA-MB-435 cells assessed as cell growth inhibition by SRB assay. Format: functional, cell-based.
Assay [3] relates to MCF7. Put plainly: Anticancer activity against human MCF7 cells assessed as cell growth inhibition by SRB assay. Format: functional, cell-based. (In general: In SRB staining, fixed cells bind dye roughly in proportion to their protein.)
The test system of assay [4] is A549. Put plainly: Anticancer activity against human A549 cells assessed as cell growth inhibition at 100 uM by MTT assay relative to control. The assay is classed as functional.
The next assay relates to HepG2. Kind of assay: Anticancer activity against human HepG2 cells assessed as cell growth inhibition at 100 uM by MTT assay relative to control. Format: functional.
The test system of another assay is A-431. Kind of assay: Anticancer activity against human A-431 cells assessed as cell growth inhibition at 100 uM by MTT assay relative to control. The assay is classed as functional.
In assay [5] the test system is MCF7. Put plainly: Anticancer activity against human MCF7 cells assessed as cell growth inhibition at 100 uM by MTT assay relative to control. Format: functional.
Assay [6] concerns MCF7. Put plainly: Growth inhibition of human MCF7 cells assessed as cell growth inhibition by SRB assay. Format: functional.

As usually defined, the IC50 is the concentration at which inhibition is half-maximal. By inhibition is commonly meant the change of the read-out against control, counted positive when it falls. For orientation: GI50 means the concentration that inhibits growth by half.

With `Cc1cc(=O)oc2cc(NC(=O)CN3CCC[C@@H]3C#N)ccc12`, the IC50 with A549 [1] was found to be 4.02 µM; in the assay with MCF7 [2] it was 4.43 µM.
Take `O=C1Nc2ccccc2C12N[C@H](Cc1ccccc1)[C@@H](c1cccc([N+](=O)[O-])c1)[C@@]21CN(/C=C/c2ccccc2)C/C(=C\c2cccc([N+](=O)[O-])c2)C1=O` (some centres undefined): in the assay with FaDu, the IC50 is not below 19 µM.
In the case of `Cc1cc(=O)oc2cc(NC(=O)CN3CCC[C@@H]3C(N)=O)ccc12`, the IC50 with A549 [1] turned out to be 0.024 µM; with MCF7 [2] it was 0.355 µM.
As for `O=C(N[C@H]1C[C@@H](C(=O)NO)N(S(=O)(=O)c2ccc(Oc3ccccc3)cc2)C1)c1cccnc1`, the IC50 in the assay with A549 [1] was found to be 5 µM.
In the case of `N#CC1=C(N)OC2=C(c3ccccc3C2=O)C12C(=O)Nc1ccccc12` (centres undefined), the IC50 in the assay on MDA-MB-435 was not below 3.6 µM; with MCF7 [3], not below 53 µM.
Consider `CCOC(=O)[C@H]1CCCN1CC(=O)Nc1ccc2c(C)cc(=O)oc2c1`, for which the IC50 with A549 [1] was 0.024 µM; in the assay with MCF7 [2] it was 0.355 µM.
`O=C(N[C@H]1C[C@@H](C(=O)NO)N(S(=O)(=O)c2ccc(Oc3ccccc3)cc2)C1)c1cc(Br)cnc1Cl`: the IC50 in the assay on A549 [1] amounted to 5 µM.
For `N#C[C@H]1CCCN1CC(=O)Nc1cc2ccccc2oc1=O`, the IC50 with A549 [1] and in the assay on MCF7 [2] was 4.37 µM each time.
On to `O=C1Nc2ccccc2C12N[C@H](Cc1ccccc1)[C@@H](c1ccc(Cl)cc1Cl)[C@@]21CN(/C=C/c2ccccc2)C/C(=C\c2ccc(Cl)cc2Cl)C1=O` (some centres undefined), for which, in the assay with FaDu, the IC50 was 22 µM.
`CCCCCC/C=C\CCCCCCCC(=O)N1CCC[C@@H]1OP(=O)([O-])OCC[N+](C)(C)C`: the inhibition at 100 µM in the assay on A549 [4] was found to be 4.7%; with HepG2, 10.1%; in the assay on A-431 it was 0.3%; with MCF7 [5], 22.6%.
The corresponding values for `CCCCCCCC/C=C\CC(=O)N1CCC[C@@H]1COP(=O)([O-])OCC[N+](C)(C)C` are 4.7%, 10.1%, 0.3% and 93%.
Take `O=C(Nc1cc2ccccc2oc1=O)[C@@H]1CCCN1S(=O)(=O)c1ccc(Cl)cc1`: the IC50 in the assay on A549 [1] is 3.81 µM; with MCF7 [2], 4.39 µM.
Consider `O=C1Nc2ccccc2C12N[C@H](Cc1ccccc1)[C@@H](c1ccccc1)[C@@]21CN(/C=C/c2ccccc2)C/C(=C\c2ccccc2)C1=O` (some centres undefined), for which the IC50 in the assay on FaDu is 19 µM.
On to `CCCCCCCCCCCCCCCCC/C=C\CCCCCCCC(=O)N1CC[C@@H](OP(=O)([O-])OCC[N+](C)(C)C)C1`, for which the inhibition at 100 µM in the assay on A549 [4] was 4.7%; in the assay on HepG2 it was 10.1%; in the assay on A-431 it was 0.3%; in the assay on MCF7 [5], 22.6%.
Consider `O=C(/C=C/c1ccco1)c1ccc(OCCN2CCCC2)cc1`, for which the GI50 in the assay with MCF7 [6] was more than 80 mg/L.
Regarding `CCCCCCCCCCCCCCCC(=O)N1CCC[C@H]1OP(=O)([O-])OCC[N+](C)(C)C`, the inhibition at 100 µM with A549 [4] worked out at 71.6%; in the assay on HepG2, 10.1%; with A-431 it was 0.3%; in the assay with MCF7 [5] it was 22.6%.
For `O=C(CN1CCCC1)Nc1cc2ccccc2oc1=O`, the results for the IC50 with A549 [1] and in the assay with MCF7 [2] were 1.8 µM and 4.8 µM, respectively.
Turning to `N#CC1=C(N)OC2=C(c3ccccc3C2=O)C12C(=O)Nc1ccc(I)cc12` (centres undefined), the IC50 in the assay on MDA-MB-435 was not below 3.6 µM; with MCF7 [3], not below 53 µM.
Turning to `O=C1Nc2ccccc2C12N[C@H](Cc1ccccc1)[C@@H](c1ccccc1Cl)[C@@]21CN(/C=C/c2ccccc2)C/C(=C\c2ccccc2Cl)C1=O` (some centres undefined), in the assay on FaDu, the IC50 was not below 19 µM.
Take `NC(=O)[C@H]1CCCN1CC(=O)Nc1cc2ccccc2oc1=O`: the IC50 in the assay with A549 [1] amounted to 0.024 µM; with MCF7 [2] it was 0.355 µM.
The corresponding values for `Cc1cc(=O)oc2cc(NC(=O)[C@@H]3CCCN3S(=O)(=O)c3ccccc3)ccc12` are 18.1 µM and 2.58 µM.
For `N#CC1=C(N)OC2=C(c3ccccc3C2=O)C12C(=O)Nc1ccc(Br)cc12` (centres undefined), the IC50 was not below 3.6 µM in the assay on MDA-MB-435 and not below 53 µM with MCF7 [3].
For `CCOC(=O)[C@H]1CCCN1CC(=O)Nc1cc2ccccc2oc1=O`, the values for the IC50 in the assay with A549 [1] and in the assay with MCF7 [2] were 3.09 µM and 9.27 µM, respectively.
Turning to `COc1cccc2c1C(=O)c1c(O)c3c(c(O)c1C2=O)C[C@@](O)(C(=O)CO)C[C@@H]3O[C@H]1C[C@H](N)[C@H](O)[C@H](C)O1.Cl` [DOXORUBICIN HYDROCHLORIDE], the GI50 with MCF7 [6] was less than 10 mg/L.
With `O=C1Nc2ccccc2C12N[C@H](Cc1ccccc1)[C@@H](c1ccc(Cl)cc1)[C@@]21CN(/C=C/c2ccccc2)C/C(=C\c2ccc(Cl)cc2)C1=O` (some centres undefined), the IC50 in the assay with FaDu was not below 19 µM.
